# Laboratory results as given in paper PMC4279401 (Oncotarget, 2014).
# pEC50, pIC50, pKi: −log10 of the molar value. “Also recorded” adds a separate entry of the source. Read-outs that look alike come from different tables or passages of the source.
# How the values were obtained:
# MDA-MB231 [1] = test: Cell proliferation, MTT assay; type: cell-based; settings: Homo sapiens
# BT549 = test: Cell proliferation, MTT assay; type: cell-based; settings: Homo sapiens
# MCF-7 = test: Cell proliferation, MTT assay; type: cell-based; settings: Homo sapiens
# [2] = tested on: MDA-MB231, BT549 and MCF-7 breast cancer cells; test: Cell proliferation, MTT assay, DOT1L+ breast cancer cells; type: cell-based, Human
# H3K79 methylation [3] = test: Western blot of histone methylation in MDA-MB231; type: cell-based, Human; settings: Homo sapiens, MDA-MB-231, read-out: IC50 of H3K79 methylation inhibition
# Protocol: Human cell lines BT549, MDA-MB231, MCF-7, MDA-MB157, HCC70, A549 and NB4 were obtained from the American Type Culture Collection (ATCC) and cultured using ATCC recommended conditions. Primary antibodies against H3K79me2, H3K27me3, H3K4me3, H3K36me2, H4K20me3, H3K9me-pan were purchased from Cell Signaling (Danvers, MA). siRNA experiments were performed by transfecting MDA-MB-231 cells with X-tremeGENE Transfection Reagent (Roche) and 10 nM siRNA (Invitrogen), according to the manufacturer's protocol.
# (§1) 10^6 cells/well were incubated with increasing concentrations of a compound for 5 days and histones extracted with the EpiQuik™ Total Histone Extraction Kit (Epigentek) according to the manufacturer's protocol. Equal amounts of histones (2μg) were separated on SDS-PAGE and transferred to PVDF membranes. The blots were probed with primary antibodies, followed by anti-rabbit IgG (Thermo Scientific) secondary antibodies. For western blot analysis of MDA-MB231 xenograft tumors, tumors were harvested and frozen in liquid nitrogen. Histones were extracted and analyzed by immunoblotting as described above.
# H3K27 methylation = test: Western blot of histone methylation in MDA-MB231; type: cell-based; settings: Homo sapiens, MDA-MB-231, Fig. 4b, read-out: IC50 against H3K27 methylation
# Protocol: as §1
# [4] = tested on: methylation at H3K4, H3K9, H3K27, H3K36 and H4K20; test: Western blot of methylation at other histone lysines in MDA-MB231; type: cell-based, Human; settings: at concentrations of <1 μM, in words
# Protocol: as §1
# MDA-MB231 cells [5] = test: Apoptosis, Annexin V FACS; type: cell-based, Human; settings: 20 nM, day 7
# Protocol: (§2) For apoptosis and cell cycle analysis, 10^5 cells/well were incubated with increasing concentrations of a compound for 7 or 10 days. Apoptosis was determined using the FITC Annexin V Apoptosis Detection Kit I (BD Bioscience) according to the manufacturer's protocol. Cells for cell cycle analysis were fixed in cold 70% ethanol at 4°C and stained with Propidium iodide (Sigma-Aldrich) (20 μg/ml) and RNase A (10 μg/ml) for 30min. Cells were analyzed using a FACS Calibur (BD Biosciences/Applied Biosystems) and data were processed using the program Flowjo (version7.6.5).
# MDA-MB231 cells [6] = test: Cell cycle analysis, propidium iodide FACS; type: cell-based, Human
# Protocol: as §2
# MDA-MB231 cells [7] = test: CD44/CD24 flow cytometry; type: cell-based, Human; settings: MDA-MB231, FACS, in words
# Protocol: (§3) 5 × 10^4 cells/well were incubated with compounds for 14 days. The ALDH activity of cells was determined by using the ALDEFLUOR assay kit (StemCell Technologies) according to the manufacturer's instructions. Combinations of fluorochrome-conjugated monoclonal antibodies against human CD44-FITC and CD24-PE were obtained from BD Biosciences. Primary antibodies or the respective isotype controls (BD Biosciences) were added to the cell suspension, according to the manufacturer's recommendation, and incubated at 4°C for 20 min. Dead cells were eliminated using propidium iodide (Sigma). The labelled cells were analyzed on a FACS Calibur (BD Biosciences/Applied Biosystems).
# MDA-MB231 cells [8] = test: ALDEFLUOR assay; type: cell-based, Human; settings: in words
# Protocol: as §3
# MDA-MB231 [9] = test: Secondary mammosphere assay; type: cell-based, Human; settings: MDA-MB231, in words
# Protocol: The protocol for mammosphere assay was performed using a published method. The numbers of secondary mammospheres in each well were counted using a Leica MZ12.5 microscope.
# MDA-MB231 [10] = test: Transwell cell migration assay; type: cell-based, Human; settings: MDA-MB231, Transwell with and without Matrigel, in words
# Protocol: 5 × 10^4 cells/well were incubated with compounds for 14 days. For transwell migration assays, 5× 10^4 cells were plated in the top chamber with the non-coated membrane (24-well insert; pore size, […]; BD Biosciences). For invasion assays, 5× 10^4 cells were plated in the top chamber with Matrigel-coated membrane. The cells on the apical side of each insert were then scraped off after 22 h for both assays. The wells were washed with PBS, fixed with 100% methanol and stained with DAPI. Cells that had migrated to the basal side of the membrane were visualized and counted with a Nikon Eclipse TE2000-U microscope at 10×. Pictures of three random fields were obtained and the number of cells that had migrated quantified using ImageJ analysis software.
# MDA-MB231 xenograft = MDA-MB231 xenograft mouse model; type: in vivo, athymic nude mice; settings: 4 mg/kg/day for 28 days
# Protocol: (§4) Female athymic nude mice (4 to 6 weeks old) were obtained from Charles River (Wilmington, MA, USA) and maintained under pathogen-free conditions. The use of athymic nude mice and their treatment were approved by the BCM Institutional Animal Care and Use Committee, and the experiments were conducted in strict compliance with the regulations. 2 ×10^6 MDA-MB-231 cells were injected into the upper right mammary fat pad of the recipient mouse and tumor growth and animal weights were monitored twice a week. The tumor volumes were calculated using the formula length × (width)^2/2. When the tumors reached a size of about 20–30 mm^3, mice were randomly segregated into control and treatment groups. Mice in the treatment group were implanted subcutaneously an osmotic pumps (Alzet model 2004) containing 2.8 mg of 3 in 200 μL of PBS. Animals were sacrificed when the volumes of tumors reaching ~1.5 cm^3. Log-rank analysis was used to determine statistical significance of the survival curves using Prism 5.0 (GraphPad).
# H3K79 methylation [11] = test: Western blot of xenograft tumor tissues; type: in vivo, athymic nude mice; settings: day 14, Western blot, in words
# Protocol: as §1
# as §4, with “Mice in the treatment group were implanted subcutaneously an osmotic pumps (Alzet model 2004) containing 2.8 mg of 3 in 200 μL of PBS. Animals were sacrificed when the volumes of tumors reaching ~1.5 cm^3. Log-rank analysis was used to determine statistical significance of the survival curves using Prism 5.0 (GraphPad).” left out
# Toxicity in treated mice = type: in vivo
# Protocol: as §4
# SAHH = settings: read-out: Ki against SAHH; cited from earlier work
smiles,measurement,setting,value
"Nc1ncnc2c1ncn2[C@@H]1C=C(CO)[C@@H](O)[C@H]1O [Compound 3, neplanocin A]",pEC50,"MDA-MB231 [1]; MDA-MB-231, 72 h, MDA-MB231, 3-day treatment, read-out: Anti-proliferative activity EC50",6.03
same,pEC50,"MDA-MB231 [1]; MDA-MB-231, 360 h, MDA-MB231, 15-day, read-out: EC50, 15-day treatment",8.05
same,pEC50,"BT549; BT-549, 72 h, BT549, 3-day treatment, read-out: Anti-proliferative activity EC50",5.59
same,pEC50,"BT549; BT-549, 360 h, BT549, 15-day, read-out: EC50, 15-day treatment",7.54
same,pEC50,"MCF-7; MCF7, 72 h, MCF-7, 3-day treatment, read-out: Anti-proliferative activity EC50",6.04
same,pEC50,"MCF-7; MCF7, 360 h, MCF-7, 15-day, read-out: EC50, 15-day treatment",7.29
same,pEC50,"[2]; Homo sapiens, 72 h, three DOT1L+ breast cancer cells, 3-day, read-out: EC50, 3-day treatment",5.59 to 6.05
same,times more active in 15-day than in the corresponding 3-day data,"[2]; MDA-MB231, BT549, MCF-7",18 - 100 ×
same,pIC50,H3K79 methylation [3],~7.30
same,pIC50,H3K27 methylation,< 5.22
same,"inhibitory activity against methylation at H3K4, H3K9, H3K27, H3K36 and H4K20",[4],no or negligible inhibitory activities; also recorded: negligible effects
same,apoptosis of MDA-MB231 cells,MDA-MB231 cells [5],12.1%
same,sub-G1 phase cell population,"MDA-MB231 cells [6]; MDA-MB231, in words",increased sub-G1 population
same,sub-G phase cell population after treatment,"MDA-MB231 cells [6]; MDA-MB231, control 4.4%",21.2%
same,CD44+/CD24− cell population,MDA-MB231 cells [7],reduced; also recorded: decreased
same,cell population expressing high levels of CD24,MDA-MB231 cells [7],significantly expanded; also recorded: increased cell population expressing high levels of CD24
same,ALDH+ cell population,MDA-MB231 cells [8],decreased; also recorded: reduced
same,secondary mammosphere formation,MDA-MB231 [9],more pronounced activity; also recorded: inhibited secondary mammosphere formation
same,cell migration and invasion,MDA-MB231 [10],more pronounced activity; also recorded: reduced cell migration and invasiveness
same,animal survival,MDA-MB231 xenograft; in words,significantly prolonged animal survivals
same,tumor growth,MDA-MB231 xenograft; in words,significantly inhibited
same,tumor growth inhibition,MDA-MB231 xenograft; subcutaneous osmotic pump,> 95%
same,tumors exhibiting regression during the treatment,MDA-MB231 xenograft; remained 1-3 mm in diameter,Four tumors (out of nine)
same,H3K79 methylation in tumor tissues,H3K79 methylation [11],only significantly reduced H3K79 methylation levels; also recorded: only H3K79 methylation was significantly inhibited
same,toxicities,"Toxicity in treated mice; 4 mg/kg/day for 28 days, in words",no obvious toxicities
same,"changes in blood cell counts, hemoglobin and body weight","Toxicity in treated mice; 4 mg/kg/day, day 28, in words",did not cause significant changes; also recorded: no significant changes
same,pKi,SAHH,8.08
